Test [1] has as its system Human HCT-8 Colon Xenograft. In words: Antitumor activity in nude mice bearing human HCT-8 colon xenograft (Example-4). The format is in vivo. To be noted: i.v. push daily × 5 at maximum tolerated dose (M-Trex 4.0, MTX 1.0 mg/kg/day). An excerpt:
There are three general accepted methods for the evaluation of Pain in patients suffering from a number of diseases. They are Visual Analog Scale (VAS); Numeric rating Scale (NRS) and Verbal Categorical Rating Scale […]. Of these three assessment methods VAS is considered to be most reliable in a majority of cases to evaluate and quantify the magnitude of the perception of Pain. Clinical trials conducted by Castaneda and Nair used VAS to assess pain intensity in RA patients receiving 10-DAAM in one trial [G. Alarcon, O. Castaneda, W. J. Koopman, C. L. Krumdieck, and M. G. Nair. U.S. Pat. No. 5,030,634 (1991)] and M-Trex (CH-1504) in another trial conducted separately. Almost all cases of cancer Pain is due to tissue inflammation, tissue compression and tissue damage secondary to rapid proliferation of cells. Therefore any therapeutic intervention that shrinks proliferating tissues can bring about significant reduction in Pain. Shown below is the efficacy of M-Trex in shrinking human colon cancer transplanted and growing in nude mice.

The test system of test [2] is HCT 116 (Colon Cancer). Put plainly: Growth inhibition of human tumor cells in culture (NCI). The format is cell-based. An excerpt: (§1) The preceding data collected at the National Cancer Institute summarize the ability of M-Trex to inhibit 50% of the growth of selected tumor cells in culture. The values are expressed as Log10 GI50 values all of which are lower than 10^−8M. In the same table a comparison is made of the respective values of TGI (Total Growth Inhibition) for M-Trex and MTX. […] In addition, the Log10 GI50 values of M-Trex was lower than −8.00 for the following cell lines: NSCLC, A549/ATCC and NCI H23; Colon Cancer, HCT 116, HCT 29 and SW 620; CNS Cancer, SF 268; Melanoma M 14 and UACC 62; Ovarian Cancer, OVCAR-8; Renal Cancer, ACHN, CAKI-1, SN 12C, and UO 31; Prostate Cancer, PC 3 and Breast cancer, MDA-MB-435 and MDA-N. The MG_MID value of MTX for all 49 human tumor cell lines evaluated at NCI-DTP program was −7.05. […] The tumors and sarcomas are solid while leukemia and lymphoma are liquid tumors.

Test [3] concerns SW 620 (Colon Cancer). The test is described as above. The format is cell-based.
From the text: as §1

The subject of test [4] is MOLT-4 (Leukemia). Described as above. The format is cell-based. As to conditions: logarithmic value.
From the text: as §1

The subject of test [5] is RPMI 8226 (Leukemia). The test is described as above. The format is cell-based. As to conditions: logarithmic value.
From the text: as §1

The test system of test [6] is SF 268 (CNS Cancer). The description is as above. The format is cell-based.
From the text: as §1

Test [7] has as its system SR (Leukemia). The test is described as above. As to conditions: logarithmic value. The format is cell-based.
From the text: as §1

The test system of test [8] is NCI H23 (NSCLC). The test is described as above. The format is cell-based.
From the text: as §1

Test [9] concerns M 14 (Melanoma). The test is described as above. The format is cell-based.
From the text: as §1

Test [10] relates to OVCAR-8 (Ovarian Cancer). The description is as above. The format is cell-based.
From the text: as §1

In test [11] the test system is SN 12C (Renal Cancer). The test is described as above. The format is cell-based.
From the text: as §1

For test [12], the system named is UACC 62 (Melanoma). The description is as above. The format is cell-based.
From the text: as §1

In test [13] the test system is patients with Rheumatoid Arthritis. In words: Pain assessment by VAS scale in patients treated with M-Trex (Example-1). The format is in vivo, human. The text has this:
Of special importance was the novel observation of the ability of M-Trex to substantially reduce Pain in human subjects who were suffering from inflammation caused by autoimmune response. [O. Castaneda and M. G. Nair. Controlled trial of methotrexate versus CH-1504 in the treatment of Rheumatoid Arthritis. The J. Rheumatology. 33, 862-64, 2006.] […] Another unique observation with M-Trex was its ability to shrink human tumor xenografts in immuno-compromised mice. The ability of metabolism blocked antifolate M-Trex to shrink rapidly proliferating human tissues is representative and results in Pain reduction secondary to such proliferation. [EXAMPLE-1]** ** Pain assessment was made using the VAS scale every four weeks. Patients were treated with a daily oral dose of 7.5 mg/day of M-Trex during the duration of measurements. […] Pain as assessed by VAS was reduced from a scale of 7.2 to 1.8.
There are three general accepted methods for the evaluation of Pain in patients suffering from a number of diseases. They are Visual Analog Scale (VAS); Numeric rating Scale (NRS) and Verbal Categorical Rating Scale […]. Of these three assessment methods VAS is considered to be most reliable in a majority of cases to evaluate and quantify the magnitude of the perception of Pain. […]

Test [14] concerns C-Reactive Protein (CRP). More on the design: unit not given here. To be noted: RA patients on therapy with M-Trex, cited from earlier work.

The structures appear in SMILES notation. Where two headings read alike, the source gives them in different places. A value given as a limit tells only on which side of the number the result lay.

On to `C=C(CC(NC(=O)c1ccc(CCc2ccc3nc(N)nc(N)c3c2)cc1)C(=O)O)C(=O)O` (centres unmarked) [M-Trex, 4′-methylene-5,8-10-trideazaaminopterin], for which the “MTGI, Maximum Tumor Growth Inhibition (% of control)” value in test [1] (nude mice, HCT-8 xenograft) is given as 91.4 ± 2.2%. Moreover, the “Tumor doubling time, treated/control (%)” value in [1] (nude mice, HCT-8 xenograft) was found to be 623.08%. Further, the “TD, Tumor Doubling Time” value in test [1] (control 2.6 ± 0.8 days) stood at 16.2 ± 3.2 days. Further, the “Log10 GI50” value in test [2], in [3], in test [6], in test [8], in test [9] and in test [10] was “lower than −8.00” each time. Besides, the “Log10 GI50” value in test [11] and in [12] was “lower than −8.00” in each case. In addition, the entries for the “TGI (Total Growth Inhibition)” value in test [4], in [5] and in test [7] were −7.40, −7.44 and below −8.00, respectively. Further, the “Pain as assessed by VAS” value was found to be 7.2 in test [13] (starting value from which pain was reduced, Rheumatoid Arthritis patients) and 1.8 in test [13] (value reached on daily oral dose of 7.5 mg/day of M-Trex, assessed every four weeks). The “Plasma CRP Levels” value in [14] (visit at 4 weeks) is given as 22.1; in test [14] (visit at 8 weeks) it was 20.7; in test [14] (visit at 12 weeks), 17.7; in test [14] (visit at 16 weeks), 13.6.

Values taken from US20130018062A1, “Pain therapy with metabolism blocked antifolates” (priority 2011, published 2013).
